Values after ≈ are worked out from the molar mass of the structure shown. Active and inactive are the calls of the source. The calls are words filed in the database; no cut-off is given here.
What was measured:
Hepacivirus hominis = assay: Inhibition of HCV recombinant NS5B RNA polymerase expressed in Escherichia coli up to 100 uM by liquid scintillation counter
[1] = Inhibition of ATPase activity of HCV […] expressed in Escherichia coli; design: species or system Hepacivirus hominis
Vero [2] = assay: Cytostatic activity against african green monkey Vero cells in presence of guanosine; format: ADME, cell-based; settings: chlorocebus sabaeus
Vero [3] = assay: Cytostatic activity against african green monkey Vero cells; format: ADME, cell-based; settings: chlorocebus sabaeus
Hepatitis C virus = assay: Antiviral activity against HCV infected in human HuH5.2 assessed as inhibition of viral RNA synthesis after 4 days by Steady-Glo-luciferase assay; format: functional, organism-based, Hepacivirus hominis; settings: Huh-5-2, 96 h
[4] = Cytostatic activity against human HuH5.2 after 3 days by MTS/PMS assay; format: ADME, Huh-5-2; settings: HuH5.2 cells
[5] = Inhibition of HCV NS3 helicase expressed in Escherichia coli; design: species or system Hepacivirus hominis

Activity (Hepacivirus hominis): inactive
IC50 [1]: > 1 mM
EC50 (Hepatitis C virus): 3 µg/mL (≈ 6.64 µM)
IC50 [5]: 50 µg/mL (≈ 111 µM)
SMILES: COc1cc(OC)c2c(=O)c3cc(N)c(N4CCN(c5nccs5)CC4)cc3n(C)c2c1
Activity (Vero [2]): Non-toxic
Activity (Vero [3]): Toxic
CC50 at 72 h [4]: > 50 µg/mL

From ChEMBL document CHEMBL1138495, “Inhibition of subgenomic hepatitis C virus RNA replication by acridone derivatives: identification of an NS3 helicase inhibitor” (J Med Chem, 2009)
